From patent US20230002359A1, “PESTICIDALLY ACTIVE FUSED BICYCLIC HETEROAROMATIC COMPOUNDS” (priority 2019, published 2023)

How the values were obtained:
Format in all cases: in vivo
[1] = test system: Diabrotica Balteata (Corn Root Worm); test: Example B1: Diabrotica balteata (corn root worm), maize sprouts sprayed, L2 larvae; conditions: 96 h, application rate of 200 ppm, 4 days after infestation, L2 larvae, read-out: control in at least one of the two categories (mortality or growth inhibition)
Summary of the method: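 Read-out is mortality plus growth inhibition relative to untreated controls, assessed 4 days after infestation. Sprouts resting on agar are sprayed with aqueous solutions derived from 10′000 ppm DMSO stocks and left to dry before L2 larvae (6 to 10 per well) are added.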

[2] = test system: Euschistus heros (Neotropical Brown Stink Bug); test: Example B2: Euschistus heros (neotropical brown stink bug), soybean leaves sprayed, N2 nymphs; conditions: 120 h, application rate of 200 ppm, 5 days after infestation, N2 nymphs, read-out: control in at least one of the two categories (mortality or growth inhibition)
Protocol: Soybean leaves on agar in 24-well microtiter plates were sprayed with aqueous test solutions prepared from 10′000 ppm DMSO stock solutions. After drying the leaves were infested with N2 nymphs. The samples were assessed for mortality and growth inhibition in comparison to untreated samples 5 days after infestation.

[3] = test system: Chilo suppressalis (Striped Rice Stemborer); test: Example B3: Chilo suppressalis (striped rice stemborer), artificial diet, L2 larvae; conditions: 144 h, application rate of 200 ppm, 6 days after infestation, L2 larvae, read-out: control in at least one of the three categories (mortality, anti-feedant effect, or growth inhibition)
Summary of the method: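 Artificial diet in wells was treated with aqueous test solutions diluted from 10'000 ppm DMSO stocks, dried, then infested with 6-8 L2 larvae per well. Mortality, anti-feeding effect and growth inhibition were scored against untreated samples 6 days after infestation; control means any category exceeds the untreated sample.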

[4] = test system: Plutella xylostella (Diamond Back Moth); test: Example B4: Plutella xylostella (diamond back moth), artificial diet, eggs, 24-well; conditions: 192 h, application rate of 200 ppm, 8 days after infestation, eggs, read-out: control in at least one of the two categories (mortality or growth inhibition)
Protocol: 24-well microtiter plates with artificial diet were treated with aqueous test solutions prepared from 10′000 ppm DMSO stock solutions by pipetting. After drying, Plutella eggs were pipetted through a plastic stencil onto a gel blotting paper and the plate was closed with it. The samples were assessed for mortality and growth inhibition in comparison to untreated samples 8 days after infestation.

[5] = test system: Spodoptera littoralis (Egyptian Cotton Leaf Worm); test: Example B7: Spodoptera littoralis (Egyptian cotton leaf worm), cotton leaf discs sprayed, L1 larvae; conditions: foliar, 72 h, application rate of 200 ppm, 3 days after infestation, L1 larvae, read-out: control in at least one of the three categories (mortality, anti-feedant effect, or growth inhibition)
Summary of the method: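 Leaf discs on agar; spray, aqueous dilution of 10′000 ppm DMSO stock; dry; 5 L1 larvae/disc. Read at 3 d post-infestation: mortality, antifeedant, growth inhibition vs untreated. Control = ≥1 category above untreated.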

[6] = test system: Myzus persicae (Green Peach Aphid); test: Example B6: Myzus persicae (green peach aphid) intrinsic activity, sucrose solution; conditions: 120 h, test rate of 12 ppm, 5 days after infestation, intrinsic activity, read-out: mortality
Protocol: Test compounds prepared from 10′000 ppm DMSO stock solutions were applied by pipette into 24-well microtiter plates and mixed with sucrose solution. The plates were closed with a stretched Parafilm. A plastic stencil with 24 holes was placed onto the plate and infested pea seedlings were placed directly on the Parafilm. The infested plate was closed with a gel blotting paper and another plastic stencil and then turned upside down. The samples were assessed for mortality 5 days after infestation.

COCN(c1ncnc2c(C(F)(F)F)cc(C(F)(F)F)cc12)C(C)c1ncnn1-c1ccc(C#N)cn1 (centres unmarked) [P.7, 6-[5-[1-[[6,8-bis(trifluroomethyl)quina-zolin-4-yl]-(methoxymethyl)amino]ethyl]-1,2,4-triazol-1-yl]pyridine-3-carbonitrile]
≥ 80%: percent control (mortality or growth inhibition) at 200 ppm [1] | percent control (mortality or growth inhibition) at 200 ppm [2] | percent control (mortality, anti-feedant effect or growth inhibition) at 200 ppm [3] | percent control (mortality or growth inhibition) at 200 ppm [4] | percent control (mortality, anti-feedant effect or growth inhibition) at 200 ppm [5]

CC(c1ncnn1-c1ccc(C#N)cn1)N(Cc1ccccc1)c1ncnc2c(C(F)(F)F)cc(C(F)(F)F)cc12 (centres unmarked) [P.8, 6-[5-[1-[benzyl-[6,8-bis(trifluoromethyl)quina-zolin-4-yl]amino]ethyl]-1,2,4-triazol-1-yl]pyridine-3-carbonitrile]
≥ 80%: percent control (mortality or growth inhibition) at 200 ppm [1] | percent control (mortality or growth inhibition) at 200 ppm [2] | percent control (mortality, anti-feedant effect or growth inhibition) at 200 ppm [3] | percent control (mortality or growth inhibition) at 200 ppm [4] | percent control (mortality, anti-feedant effect or growth inhibition) at 200 ppm [5]

CC(Nc1ncnc2c(Br)cc(C(F)(F)F)cc12)c1ncnn1-c1ncccn1 (centres unmarked) [P.47, 8-bromo-N-[1-(2-pyrimidin-2-yl-1,2,4-triazol-3-yl)ethyl]-6-(trifluoromethyl)quinazolin-4-amine]
≥ 80%: percent control (mortality or growth inhibition) at 200 ppm [1] | percent control (mortality or growth inhibition) at 200 ppm [2] | percent control (mortality, anti-feedant effect or growth inhibition) at 200 ppm [3] | percent control (mortality or growth inhibition) at 200 ppm [4] | percent control (mortality, anti-feedant effect or growth inhibition) at 200 ppm [5]

CC(c1ncnn1-c1ncccn1)N(C)c1ncnc2c(Br)cc(C(F)(F)F)cc12 (centres unmarked) [P.71, 8-bromo-N-methyl-N-[1-(2-pyrimidin-2-yl-1,2,4-triazol-3-yl)ethyl]-6-(trifluoromethyl)quinazolin-4-amine]
≥ 80%: percent control (mortality or growth inhibition) at 200 ppm [1] | percent control (mortality or growth inhibition) at 200 ppm [2] | percent control (mortality, anti-feedant effect or growth inhibition) at 200 ppm [3] | percent control (mortality or growth inhibition) at 200 ppm [4] | mortality at 12 ppm [6]

C[C@@H](c1ncnn1-c1ncccn1)N(C)c1ncnc2c(C(F)(F)F)cc(C(=O)C3CC3)cc12 [P.82, cyclopropyl-[4-[methyl-[(1S)-1-(2-pyrimidin-2-yl-1,2,4-triazol-3-yl)ethyl]amino]-8-(trifluoromethyl)quinazolin-6-yl]methanone]
≥ 80%: percent control (mortality or growth inhibition) at 200 ppm [1] | percent control (mortality or growth inhibition) at 200 ppm [2] | percent control (mortality, anti-feedant effect or growth inhibition) at 200 ppm [3] | percent control (mortality or growth inhibition) at 200 ppm [4] | mortality at 12 ppm [6]

CC(Nc1nccc2c(C(F)(F)F)cc(C(F)(F)F)cc12)c1ncnn1-c1ncccn1 (centres unmarked) [P.83, N-[1-(2-pyrimidin-2-yl-1,2,4-triazol-3-yl)ethyl]-5,7-bis(trifluoromethyl)isoquinolin-1-amine]
≥ 80%: percent control (mortality or growth inhibition) at 200 ppm [1] | percent control (mortality or growth inhibition) at 200 ppm [2] | percent control (mortality, anti-feedant effect or growth inhibition) at 200 ppm [3] | percent control (mortality or growth inhibition) at 200 ppm [4]

C[C@@H](c1ncnn1-c1ncccn1)N(C)c1ncnc2c(C(F)(F)F)cc(SC(F)(F)F)cc12 [P.84, N-methyl-N-[(1S)-1-(2-pyrimidin-2-yl-1,2,4-triazol-3-yl)ethyl]-8-(trifluoromethyl)-6-(trifluoromethylsulfanyl) quinazolin-4-amine]
≥ 80%: percent control (mortality or growth inhibition) at 200 ppm [1] | percent control (mortality or growth inhibition) at 200 ppm [2] | percent control (mortality, anti-feedant effect or growth inhibition) at 200 ppm [3] | percent control (mortality or growth inhibition) at 200 ppm [4] | mortality at 12 ppm [6]

C[C@H](Nc1ncnc2c(C(F)(F)F)cc(I)cc12)c1ncnn1-c1ncccn1 [P.87, 6-iodo-N-[(1S)-1-(2-pyrimidin-2-yl-1,2,4-triazol-3-yl)ethyl]-8-(trifluoromethyl)quinazolin-4-amine]
≥ 80%: percent control (mortality or growth inhibition) at 200 ppm [1] | percent control (mortality or growth inhibition) at 200 ppm [2] | percent control (mortality, anti-feedant effect or growth inhibition) at 200 ppm [3] | percent control (mortality or growth inhibition) at 200 ppm [4] | mortality at 12 ppm [6]

CC(c1ncnn1-c1ncc(Br)cn1)N(C)c1ncnc2c(C(F)(F)F)cc(C(F)(F)F)cc12 (centres unmarked) [P.89, N-[1-[2-(5-bromopyrimidin-2-yl)-1,2,4-triazol-3-yl]ethyl]-N-methyl-6,8-bis(trifluoromethyl)quina-zolin-4-amine]
≥ 80%: percent control (mortality or growth inhibition) at 200 ppm [1] | percent control (mortality or growth inhibition) at 200 ppm [2] | percent control (mortality, anti-feedant effect or growth inhibition) at 200 ppm [3] | percent control (mortality or growth inhibition) at 200 ppm [4]

CC(c1nccnc1-c1ncccn1)N(C)c1ncnc2c(C(F)(F)F)cc(C(F)(F)F)cc12 (centres unmarked) [P.107, N-methyl-N-[1-(3-pyrimidin-2-ylpyrazin-2-yl)ethyl]-6,8-bis(trifluoromethyl)quina-zolin-4-amine]
≥ 80%: percent control (mortality or growth inhibition) at 200 ppm [1] | percent control (mortality or growth inhibition) at 200 ppm [2] | percent control (mortality, anti-feedant effect or growth inhibition) at 200 ppm [3] | percent control (mortality or growth inhibition) at 200 ppm [4] | percent control (mortality, anti-feedant effect or growth inhibition) at 200 ppm [5]

Cc1cnc(-c2ccc(C#N)cn2)c([C@H](C)N(C)c2ncnc3c(C(F)(F)F)cc(C(F)(F)F)cc23)n1 [P.175, 6-[3-[(1S)-1-[[6,8-bis(trifluoromethyl)quina-zolin-4-yl]-methyl-amino]ethyl]-5-methyl-pyraizn-2-yl]pyridine-3-carbonitrile]
≥ 80%: percent control (mortality or growth inhibition) at 200 ppm [1] | percent control (mortality or growth inhibition) at 200 ppm [2] | percent control (mortality, anti-feedant effect or growth inhibition) at 200 ppm [3] | percent control (mortality or growth inhibition) at 200 ppm [4]

C[C@@H](c1ncnn1-c1ccc(C#N)cn1)N(C)c1ncnc2c(C(F)(F)C3CC3)cc(C(F)(F)F)cc12 [P.213, 6-[5-[(1S)-1-[[8-[cyclopropyl(difluoro)meth-yl]-6-(trifluoromethyl)quinazolin-4-yl]-methyl-amino]ethyl]-1,2,4-triazol-1-yl]pyridine-3-carbonitrile]
≥ 80%: percent control (mortality or growth inhibition) at 200 ppm [1] | percent control (mortality or growth inhibition) at 200 ppm [2] | percent control (mortality, anti-feedant effect or growth inhibition) at 200 ppm [3] | percent control (mortality or growth inhibition) at 200 ppm [4] | percent control (mortality, anti-feedant effect or growth inhibition) at 200 ppm [5]

CC(c1ncnn1-c1ccc(C#N)cn1)N(C)c1ncnc2c(OC(F)(F)F)cc(Br)cc12 (centres unmarked) [P.216, 6-[5-[1-[[6-bromo-8-(trifluoromethoxy)quinazo-lin-4-yl]-methyl-amino]ethyl]-1,2,4-triazol-1-yl]pyridine-3-carbonitrile]
≥ 80%: percent control (mortality or growth inhibition) at 200 ppm [1] | percent control (mortality or growth inhibition) at 200 ppm [2] | percent control (mortality, anti-feedant effect or growth inhibition) at 200 ppm [3] | percent control (mortality or growth inhibition) at 200 ppm [4] | percent control (mortality, anti-feedant effect or growth inhibition) at 200 ppm [5]

CC(=O)N(c1ncnc2c(C(F)(F)F)cc(C(F)(F)F)cc12)C(C)c1ncnn1-c1ccc(C#N)cn1 (centres unmarked) [P.259, N-[6,8-bis(trifluoromethyl)quina-zolin-4-yl]-N-[1-[2-(5-cyano-2-pyridyl)-1,2,4-triazol-3-yl]ethyl]acetamide]
≥ 80%: percent control (mortality or growth inhibition) at 200 ppm [1] | percent control (mortality or growth inhibition) at 200 ppm [2] | percent control (mortality, anti-feedant effect or growth inhibition) at 200 ppm [3] | percent control (mortality or growth inhibition) at 200 ppm [4] | percent control (mortality, anti-feedant effect or growth inhibition) at 200 ppm [5]

C#CCN(c1ncnc2c(C(F)(F)F)cc(C(F)(F)F)cc12)C(C)c1ncnn1-c1ccc(C#N)cn1 (centres unmarked) [P.261, 6-[5-[1-[[6,8-bis(trifluoromethyl)quina-zolin-4-yl]-prop-2-ynyl-amino]ethyl]-1,2,4-triazol-1-yl]pyridine-3-carbonitrile]
≥ 80%: percent control (mortality or growth inhibition) at 200 ppm [1] | percent control (mortality or growth inhibition) at 200 ppm [2] | percent control (mortality, anti-feedant effect or growth inhibition) at 200 ppm [3] | percent control (mortality or growth inhibition) at 200 ppm [4] | percent control (mortality, anti-feedant effect or growth inhibition) at 200 ppm [5]

C[C@@H](c1ncnn1-c1ncccn1)N(C)c1ncnc2c(C(F)(F)F)cc(C(F)(F)C3CC3)cc12 [P.276, 6-[cyclopropyl(difluoro)meth-yl]-N-methyl-N-[(1S)-1-(2-pyrimidin-2-yl-1,2,4-triazol-3-yl)ethyl]-8-(trifluromethyl)quinazolin-4-amine]
≥ 80%: percent control (mortality or growth inhibition) at 200 ppm [1] | percent control (mortality or growth inhibition) at 200 ppm [2] | percent control (mortality, anti-feedant effect or growth inhibition) at 200 ppm [3] | percent control (mortality or growth inhibition) at 200 ppm [4] | percent control (mortality, anti-feedant effect or growth inhibition) at 200 ppm [5]
